Legend:
[1] = system: bystander B cells (TLR2+ APCs); test: Bystander B-cell activation by TLR2 ligand-depoted T cells; format: cell-based, mouse; conditions: for CD69 upregulation on B cells (fold MFI) / MHC II upregulation on B cells (fold MFI): T cells depoted 10 μg/mL 1 h, co-culture with B cells 2 days, MFI normalized to unstimulated B cells, n = 5-6 independent experiments; for CD69 expression, depoted vs same dose of soluble ligand / MHC II expression, depoted vs same dose of soluble ligand: soluble dose 10 ng/mL Pam2CSK4, 2 ng/mL Pam3CSK4; for B-cell activation by dose-matched soluble ligand: 10 ng/mL Pam2CSK4, 2 ng/mL Pam3CSK4
Method: (§1) Unless specified otherwise (in Figure 2), splenocytes, isolated B cells, or isolated T cells were incubated with CpG (5 μM), lipid-CpG (5 μM), Pam2CSK4 (10 μg/mL), or Pam3CSK4 (10 μg/mL) for 1 h in complete RPMI 1640 media supplemented with 10% fetal bovine serum. Splenocytes or T cells were then washed 3 times with PBS plus 1% bovine serum albumin to remove unbound ligand.
Naïve or primed T cells were rested in complete RPMI 1640 media and supplemented with 10% FBS after depoting with Pam2CSK4 or Pam3CSK4 as described above. At selected time-points (0, 1, 2, 5, or 8 days post-depoting), T cells were washed and fixed with 4% paraformaldehyde (Sigma) for 15 min at 25°C. After washing 5 times with PBS + 1% BSA, at 1,000 × g for 5 min, T cells were cultured in complete RPMI 1640 media and supplemented with 10% FBS. Bystander B cells were added in co-cultures at a 1:1 B cell:T cell ratio. Naïve T cells without fixation were immediately cultured with bystander B cells. After 2 days of incubation at 37°C and 5% CO2, B-cell activation was measured by fluorescent staining for MHCII (clone M5/114.15.2; FITC) and CD69 (clone H1.2F3; PerCP/Cy5.5).

[2] = stated as much higher than the input concentration; cited from earlier work
Text: Thus, multiple lipid tails are a key design parameter for membrane delivery, and may be a simple way to enhance delivery of cargo to plasma membranes. One explanation of lipid-mediated insertion of TLR2 lipid-ligands, i.e., Pam2CSK4 and Pam3CSK4, into plasma membr ...

polyclonal T cells = test: Cytokine quantification in T-cell supernatants by ELISA; format: cell-based, mouse; conditions: supernatants day 2, ELISA, αCD3/CD28 bead-stimulated T cells, n = 5
Method: (§2) Naïve T cells were labeled with 5 μM of carboxyfluorescein succinimidyl ester (CFSE, ThermoFisher). Labeled cells were cultured in RPMI 1640 media and supplemented with 10% FBS as well as αCD3/CD28 coated Dynabeads^TM (Thermo) at a 1:5 bead to T cell ratio after depoting of lipid-CpG, Pam2CSK4, and/or Pam3CSK4 ligands. Non-depoted T cells were treated with soluble lipid-CpG (5 μM), Pam2CSK4 (10 μg/mL), and/or Pam3CSK4 (10 μg/mL). Cell proliferation was measured by CFSE dilution after 3 days, and cell activation was measured by fluorescent staining for CD25 (clone PC61; PE). Cell proliferation index and division index were calculated using FlowJo LLC software. Proliferation index is defined as the total number of cell divisions divided by the number of divided cells, whereas division index is the total number of cell divisions divided by the number of total original cells ([24]). Paracrine-enhanced proliferation of bystander T cells was measured as described above, with αCD3/CD28 beads added at a 2:5 bead to T-cell ratio.
T-cell activation was analyzed by collecting supernatants on day 2 post-activation for IL-2, IL-4, and IFNγ quantification by ELISA per manufacturer's instructions (BioLegend).

purified mouse T cells = test: ELISA quantification of depoted lipid conjugates per T cell; format: cell-based; conditions: for ng/mL (equivalent in solution): Table S1, estimated dose on depoted T cells; for # Ligands/T cell: Table S1, quantitation of cell surface TLR2 ligands by ELISA, depoted 10 μg/mL, 1 h; for fold increase in number of depoted molecules per T cell, 0.1 to 10 μg/mL depoting concentration: biotinylated ligand, cell lysate, streptavidin-HRP/TMB absorbance 450 nm, n = 3-4 independent samples
Method: as §1
One million purified T cells were depoted with FAM-labeled lipid-CpG, biotinylated Pam2CSK4, or biotinylated Pam3CSK4 as described above, and then lysed with Glo lysis buffer (Promega) for 10 min at 25°C. Lysates were collected and plated onto Nunc MaxiSorp ELISA plates (Thermo). After 2 h of incubation at 25°C, FAM-labeled lipid-CpG was excited at 488 nm, and fluorescent emission at 520 nm was quantified by a microplate fluorescence reader. For Pam2CSK4 and Pam3CSK4 samples, horseradish peroxidase (HRP)-labeled streptavidin was added for 2 h incubation at 25°C, and then TMB substrate (Thermo) was added to observe changes in absorbance at 450 nm with a microplate spectrophotometer (BioTek).

[3] = system: depoted and bystander CD4+ and CD8+ T cells; test: Paracrine-enhanced proliferation: depoted T cells co-cultured with bystander T cells; format: cell-based, mouse; conditions: αCD3/CD28 beads 3 days, n = 5
Method: as §2

CD4+ and CD8+ T cells = test: T-cell activation assay (CFSE proliferation, αCD3/CD28 beads); format: cell-based, mouse; conditions: αCD3/CD28 beads 3 days, CFSE dilution
Method: as §2

[4] = co-culture with depoted T cells
[5] = co-culture with non-depoted T cells

Substance	CD69 upregulation on B cells (fold MFI) [1] [fold]	MHC II upregulation on B cells (fold MFI) [1] [fold]	CD69 expression, depoted vs same dose of soluble ligand ([1]; 2 days co-culture) [fold]	MHC II expression, depoted vs same dose of soluble ligand ([1]; 2 days co-culture) [fold]	B-cell activation by dose-matched soluble ligand [1]	critical micelle concentration [2] [µg/mL]	increase in IL-2 levels, depoted vs soluble ligand (polyclonal T cells) [fold]	ng/mL (equivalent in solution) (purified mouse T cells) [ng/mL]	# Ligands/T cell (purified mouse T cells)	fold increase in number of depoted molecules per T cell, 0.1 to 10 μg/mL depoting concentration (purified mouse T cells) [fold]	MHC II expression, depoted vs 10 μg/mL of soluble ligand ([1]; 2 days co-culture) [fold]	bystander CD4+ T-cell division index vs soluble ligand [3, 4] [fold]	bystander CD8+ T-cell division index vs soluble ligand [3, 4] [fold]	CD4+ T-cell division index of depoted cells vs soluble ligand [3, 5] [fold]	CD8+ T-cell division index of depoted cells vs soluble ligand [3, 5] [fold]	CD8+ T-cell proliferation index, effect of depoting (CD4+ and CD8+ T cells; Figure S5)	CD4+ T-cell division index, depoted vs soluble ligand (CD4+ and CD8+ T cells; n = 3) [fold]	CD8+ T-cell division index, depoted vs soluble ligand (CD4+ and CD8+ T cells; n = 3) [fold]
Pam2CSK4	3.8	19	2.2	5.3	none of the dose-matched soluble Pam2CSK4 and Pam3CSK4 activated B cells	> 10	2.7	9.6	1.3E+07	130								
Pam3CSK4	4.4	21	2.8	6.1	none of the dose-matched soluble Pam2CSK4 and Pam3CSK4 activated B cells	> 10	3.4	1.8	2.0E+06	2.2	1.5	1.3	1.3	1.6	1.6	did enhance	1.9	2.9

From article PMC7212467, “Lipid-Mediated Insertion of Toll-Like Receptor (TLR) Ligands for Facile Immune Cell Engineering” (Frontiers in Immunology, 2020)
